Read-outs that look alike come from different tables or passages of the source.
Tests used:
Staphylococcus aureus [1] = assay: Control: microbicidal activity of the amino acid or analogue alone (no glucose, MPO, glucose oxidase) in the presence of blood; assay type: cell-based; conditions: for log reduction at 5000 µM: Staphylococcus aureus, 1 h, read-out: Log Reduction 60 min
Source text: As a control to determine the microbicidal activity of the amino acids alone, the foregoing procedure was followed without replication, except in the absence of glucose, MPO, and glucose oxidase.

Staphylococcus aureus [2] = assay: Microbicidal activity of the myeloperoxidase system (p-MPO, glucose oxidase, glucose) with amino acids in the presence of blood, CFU plate counts; synergy determination from these CFU; assay type: cell-based; conditions: for Average Viability CFU/ml 60 min / Log 10 (CFU + 1) Survivors 60 min / Log Reduction 60 min: MPO 38 U/ml, GO 33.3 U/ml; for Average Viability CFU/ml 50 min / Log Reduction 50 min: MPO 4.7 U/ml, GO 4.2 U/ml
Description: Bacterial suspensions, specifically Staphylococcus aureus in this example, were prepared by the shake flask method to achieve late log to early stationary phase growth. Bacteria were grown 24 hours in trypticase soy broth (TSB) at 35° C. The cultures were centrifuged at 4,000 rpm for 10 minutes and the supernatants removed. The pellet was collected and washed twice with sterile 0.9% normal saline (NS). The washed microorganisms were suspended and diluted with normal saline to a 3 McFarland standard, i.e., approximately 10^9 bacteria colony forming units (CFU) per mL. Actual colony counts are confirmed by serial dilutions (10^−1 to 10^−5 or 10^−6) plated on TSA and incubated overnight at 35° C. To obtain an approximate final working target inoculum of 10^7 CFU/mL, 15 microliters of organisms per mL of final reaction mixture are used.
Glucose oxidase (GO) from Aspergillus Niger was purchased from Biozyme, Inc., UK, Cat #GO3A, 270 U/mg). Porcine Myeloperoxidase (p-MPO) (Exoxemis, Inc., Little Rock, Ark. U.S.A., 375 U/mg). Sterile stock solutions of D-glucose and sodium chloride were prepared and used at a final concentration of 150 mM each. L-Lysine hydrochloride (Spectrum Chemical Cat #L1142) was prepared as a 100 mM stock solution. Catalase (Sigma, Cat #C-40) was prepared as a 1% stock solution in sterile 0.9% normal saline. Blood was collected by venipuncture and used as whole blood within the same day.
Staphylococcus aureus were used to give a final target concentration of 2-3×10^7 CFU (7.4 log 10) per mL and venous whole blood was used to give a final concentration of 3%. Glucose was added to the reaction mixtures to a final concentration of 150 mM, which initiated the microbicidal reaction. The final volume of the reaction mixtures was 1 mL. The reactions were allowed to run from 30 minutes to 2 hours, as needed, at room temperature or at 37° C. in a dry bath. At the specified time points the reaction mixtures were treated with 100 microliters of a catalase solution, containing a minimum of 100 units/μL, to consume remaining peroxide and terminate the oxidative killing. Serial dilution plate counts were performed from the contents of each vial in sterile saline and inoculated onto trypticase soy agar (TSA) for quantitative culture. Plates were then incubated at 37° C. and counts taken at 24 hours. […] The results are shown in Table 1, as the average of 2 replicates.
The amino acids alone, in the absence of MPO were tested to rule out their microbicidal activity. The results are shown in Table 2 to Table 6, as the average of 2 replicates.
The amino acid analogues alone, in the absence of MPO, were tested to rule out their microbicidal activity. […]
The effect of two-way combinations of individual amino acids with L-isoleucine, as potential enhancing agents, for MPO microbicidal action in the presence of blood, was therefore examined by following the procedure of Example 5.
The Actual CFU observed for the pair is then divided by the Predicted CFU and multiplied by 100 to calculate the % of Predicted value. This value is then to be compared to the threshold value, discussed in the next section, to determine whether the pair are synergistic, antagonistic, or additive.
Calculation of appropriate threshold values for determination of synergism and antagonism was based upon the variability of replicated CFU survivor measures.

[3] = amino acid alone 5 mM, MPO 0, GO 0, no glucose, blood, without replication
[4] = MPO 100 μg/mL, AA 20 mM, 30 min
[5] = MPO 100 μg/mL, AA 20 mM, 60 min
[6] = Table 2, amino acid 5 mM (none: 0 mM), blood
[7] = Table 10, single amino acid 2.5 mM, in the presence of blood, 50 min
[8] = Table 19, amino acid (racemic, L- or D-form) 2.5 mM, 50 min
[9] = single amino acid 2.5 mM, blood
[10] = Table 3, amino acid 5 mM (none: 0 mM), blood
[11] = Table 5, amino acid 5 mM (none: 0 mM), blood
[12] = Table 11, single amino acid 2.5 mM, in the presence of blood, 50 min
[13] = Table 14, single amino acid 2.5 mM, in the presence of blood, 50 min
[14] = Table 19, amino acid 3.5 mM, 50 min
[15] = amino acid analogue alone 5 mM, MPO 0, GO 0, no glucose, blood
[16] = Table 7, amino acid analogue 5 mM, blood
[17] = Table 13, single amino acid 2.5 mM, in the presence of blood, 50 min
[18] = Table 4, amino acid 5 mM (none: 0 mM), blood

Compound | log reduction at 5000 µM (Staphylococcus aureus [1]; [3]) | Average Viability CFU/ml 60 min (Staphylococcus aureus [1]; [3]) [CFU/ml] | Log 10 (CFU + 1) Survivors (Staphylococcus aureus [2]; MPO 25 μg/mL, AA 5 mM, 30 min) | Log 10 (CFU + 1) Survivors (Staphylococcus aureus [2]; MPO 25 μg/mL, AA 5 mM, 60 min) | Log 10 (CFU + 1) Survivors (Staphylococcus aureus [2]; MPO 25 μg/mL, AA […], 30 min) | Log 10 (CFU + 1) Survivors (Staphylococcus aureus [2]; MPO 25 μg/mL, AA […], 60 min) | Log 10 (CFU + 1) Survivors (Staphylococcus aureus [2]; MPO 100 μg/mL, AA 5 mM, 30 min) | Log 10 (CFU + 1) Survivors (Staphylococcus aureus [2]; MPO 100 μg/mL, AA 5 mM, 60 min) | Log 10 (CFU + 1) Survivors (Staphylococcus aureus [2]; [4]) | Log 10 (CFU + 1) Survivors (Staphylococcus aureus [2]; [5]) | Average Viability CFU/ml 60 min (Staphylococcus aureus [2]; [10]) [CFU/ml] | Log 10 (CFU + 1) Survivors 60 min (Staphylococcus aureus [2]; [10]) | Log Reduction 60 min (Staphylococcus aureus [2]; [10]) | Average Viability CFU/ml 50 min (Staphylococcus aureus [2]; [12]) [CFU/ml] | Log Reduction 50 min (Staphylococcus aureus [2]; [12]) | Log Reduction 60 min (Staphylococcus aureus [2]; [16]) | also measured
CC(C)[C@H](N)C(=O)O [L-Valine] | 0 | 23100000 | 4.7 | 0.0 | 4.8 | 0.0 | 0.0 | 0.0 | 0.0 | 0.0 |  |  |  |  |  |  | Average Viability CFU/ml 60 min (Staphylococcus aureus [2]; [6]): 0 CFU/ml; Log 10 (CFU + 1) Survivors 60 min (Staphylococcus aureus [2]; [6]): 0.0; Log Reduction 60 min (Staphylococcus aureus [2]; [6]): 7.4; Average Viability CFU/ml 50 min (Staphylococcus aureus [2]; [7]): 104500 CFU/ml; Log Reduction 50 min (Staphylococcus aureus [2]; [7]): 2.4; Average Viability CFU/ml 50 min (Staphylococcus aureus [2]; [8]): 104500 CFU/ml; Log Reduction 50 min (Staphylococcus aureus [2]; [8]): 2.4; Average Viability CFU/ml 50 min (Staphylococcus aureus [2]; [9]): 104500 CFU/ml; Log Reduction 50 min (Staphylococcus aureus [2]; [9]): 2.4
O=C(O)CNC(=O)c1ccccc1 [Hippuric acid] | 0 | 19700000 | 7.3 | 5.9 | 6.7 | 5.8 | 7.3 | 5.9 | 6.8 | 5.0 | 865000 | 5.9 | 1.4 |  |  |  | 
N[C@H](CO)C(=O)O [D-Serine] | 0 | 23100000 | 6.8 | 6.5 | 6.7 | 6.0 | 6.0 | 0.0 | 6.0 | 3.9 |  |  |  | 945000 | 1.5 |  | Average Viability CFU/ml 60 min (Staphylococcus aureus [2]; [11]): 0 CFU/ml; Log Reduction 60 min (Staphylococcus aureus [2]; [11]): 7.4
CC[C@H](C)[C@H](N)C(=O)O [L-Isoleucine] | 0 | 20500000 | 0.0 | 0.0 | 2.1 | 0.0 | 0.0 | 0.0 | 0.0 | 0.0 | 0 | 0.0 | 7.3 | 155500 | 2.2 |  | Average Viability CFU/ml 50 min (Staphylococcus aureus [2]; [7]): 159500 CFU/ml; Log Reduction 50 min (Staphylococcus aureus [2]; [7]): 2.2; Average Viability CFU/ml 50 min (Staphylococcus aureus [2]; [13]): 117000 CFU/ml; Log Reduction 50 min (Staphylococcus aureus [2]; [13]): 2.4; Average Viability CFU/ml 50 min (Staphylococcus aureus [2]; [14]): 129333 CFU/ml; Log Reduction 50 min (Staphylococcus aureus [2]; [14]): 2.3; Average Viability CFU/ml 50 min (Staphylococcus aureus [2]; [9]): 73000 CFU/ml; Log Reduction 50 min (Staphylococcus aureus [2]; [9]): 2.5
Cl.NCC(N)C(=O)O (racemic) [DL-2,3-Diaminopropionic acid monohydrochloride] |  |  |  |  |  |  |  |  |  |  |  |  |  |  |  | 7.4 | log reduction at 5000 µM (Staphylococcus aureus [1]; [15]): 0; Average Viability CFU/ml 60 min (Staphylococcus aureus [1]; [15]): 20600000 CFU/ml; Average Viability CFU/ml 60 min (Staphylococcus aureus [2]; [16]): 0 CFU/ml
N[C@@H](Cc1ccc(O)cc1)C(=O)O [L-Tyrosine] | 0 | 21600000 | 7.3 | 7.1 | 7.3 | 7.0 | 7.3 | 5.8 | 7.3 | 7.2 | 630000 | 5.8 | 1.5 |  |  |  | Average Viability CFU/ml 50 min (Staphylococcus aureus [2]; [17]): 890000 CFU/ml; Log Reduction 50 min (Staphylococcus aureus [2]; [17]): 1.4; Average Viability CFU/ml 50 min (Staphylococcus aureus [2]; [13]): 1450000 CFU/ml; Log Reduction 50 min (Staphylococcus aureus [2]; [13]): 1.3
O=C(O)[C@H]1CCCN1 [D-Proline] | 0.1 | 21400000 | 6.9 | 2.4 | 7.3 | 3.7 | 5.7 | 2.7 | 4.8 | 0.0 |  |  |  | 1890000 | 1.2 |  | Average Viability CFU/ml 60 min (Staphylococcus aureus [2]; [18]): 830 CFU/ml; Log Reduction 60 min (Staphylococcus aureus [2]; [18]): 4.5
O=C(O)C1CCCNC1 (centres unmarked) [Nipecotic acid] |  |  |  |  |  |  |  |  |  |  |  |  |  |  |  | 7.4 | log reduction at 5000 µM (Staphylococcus aureus [1]): 0
CC(CN)C(=O)O (racemic) [DL-3-Aminoisobutyric acid] |  |  |  |  |  |  |  |  |  |  |  |  |  |  |  | 7.4 | Average Viability CFU/ml 60 min (Staphylococcus aureus [1]; [15]): 24200000 CFU/ml; Log Reduction 60 min (Staphylococcus aureus [1]; [15]): 0.0; Average Viability CFU/ml 60 min (Staphylococcus aureus [2]; [16]): 0 CFU/ml

From patent US8945540B2, “Compositions for enhancing the antibacterial activity of myeloperoxidase and methods of use thereof” (Exoxemis, Inc., priority 2008, dated 2015)
